biological target: T1, HGFR (c-MET) (Homo sapiens, UniProt P08581); experiment: HGFR continuous-coupled spectrophotometric assay (Ki and % inhibition); type: biochemical; settings: Table 3, column 'Ki(μM) or I(%)': values without % sign; read-out: Ki
T1 construct: purchased Upstate 14-526
T1 sequence (P08581 25-1390): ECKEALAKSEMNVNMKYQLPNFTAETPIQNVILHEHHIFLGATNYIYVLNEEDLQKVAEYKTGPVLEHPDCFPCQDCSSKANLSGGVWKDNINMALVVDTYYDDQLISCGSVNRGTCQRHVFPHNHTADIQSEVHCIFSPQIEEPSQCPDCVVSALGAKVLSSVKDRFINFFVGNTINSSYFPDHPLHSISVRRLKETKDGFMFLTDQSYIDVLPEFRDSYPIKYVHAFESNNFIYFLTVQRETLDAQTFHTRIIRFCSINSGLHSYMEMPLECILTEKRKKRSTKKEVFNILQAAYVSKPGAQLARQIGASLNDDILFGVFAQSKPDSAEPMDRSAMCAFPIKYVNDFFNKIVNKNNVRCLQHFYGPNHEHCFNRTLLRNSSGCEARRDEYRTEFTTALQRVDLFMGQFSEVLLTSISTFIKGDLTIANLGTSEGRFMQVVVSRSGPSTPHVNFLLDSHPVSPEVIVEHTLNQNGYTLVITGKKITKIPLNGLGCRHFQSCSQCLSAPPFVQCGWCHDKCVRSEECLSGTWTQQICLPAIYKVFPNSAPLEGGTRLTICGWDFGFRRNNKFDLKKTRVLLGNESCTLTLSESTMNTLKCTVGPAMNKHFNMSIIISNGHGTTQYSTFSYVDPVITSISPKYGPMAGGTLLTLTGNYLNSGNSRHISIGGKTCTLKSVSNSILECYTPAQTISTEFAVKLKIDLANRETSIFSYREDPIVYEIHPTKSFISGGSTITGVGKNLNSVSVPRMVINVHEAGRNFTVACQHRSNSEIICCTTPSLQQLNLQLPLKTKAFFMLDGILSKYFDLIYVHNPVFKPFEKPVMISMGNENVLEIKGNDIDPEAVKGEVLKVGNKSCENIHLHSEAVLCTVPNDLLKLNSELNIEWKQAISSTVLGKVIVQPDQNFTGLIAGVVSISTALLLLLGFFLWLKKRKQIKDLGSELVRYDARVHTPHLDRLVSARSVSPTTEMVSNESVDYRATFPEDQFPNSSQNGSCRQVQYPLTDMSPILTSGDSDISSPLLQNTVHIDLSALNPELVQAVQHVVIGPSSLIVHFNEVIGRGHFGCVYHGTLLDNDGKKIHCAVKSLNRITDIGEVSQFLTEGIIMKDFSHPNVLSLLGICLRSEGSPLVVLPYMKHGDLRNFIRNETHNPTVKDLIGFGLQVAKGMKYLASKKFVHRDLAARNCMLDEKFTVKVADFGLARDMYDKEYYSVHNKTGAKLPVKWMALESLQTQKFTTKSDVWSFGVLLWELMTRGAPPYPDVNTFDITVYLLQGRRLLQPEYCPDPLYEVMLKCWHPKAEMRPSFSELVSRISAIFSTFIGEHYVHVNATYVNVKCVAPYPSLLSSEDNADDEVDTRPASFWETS

Ki [µM] | SMILES
0.27 | CC(Oc1cc(-c2ccc(CN3C[C@@H](C)O[C@@H](C)C3)cc2)cnc1N)c1c(Cl)ccc(F)c1Cl (stereo partly drawn) [Example I-571, 3-[1-(2,6-Dichloro-3-fluoro-phenyl)-ethoxy]-5-(4-((2R,6S)-2,6-dimethyl-morpholin-4-ylmethyl)-phenyl]-pyridin-2-ylamine]
0.0472 | CCN1CCN(C(=O)c2ccc(-c3cnc(N)c(OC(C)c4c(Cl)ccc(F)c4Cl)c3)cc2)CC1 (stereo not shown) [Example I-633, (4-{6-Amino-5-[1-(2,6-dichloro-3-fluoro-phenyl)-ethoxy]-pyridin-3-yl}-phenyl)-(4-ethyl-piperazin-1-yl)-methanone]

Further lines, the compound ahead of its results:

SMILES | Ki [µM]
CC(Oc1cc(-c2ccc(CN3CCOCC3)cc2)cnc1N)c1c(Cl)ccc(F)c1Cl (stereo not shown) [Example I-572, 3-[1-(2,6-Dichloro-3-fluoro-phenyl)-ethoxy]-(4-morpholin-4-ylmethyl-phenyl)-pyridin-2-ylamine] | 0.554
Nc1ncc(-c2ccc(C(=O)N3CCC(N4CCCC4)CC3)cc2)cc1OCc1ccc(-c2ccccc2)cc1 [Example I-651] | 1.53

same assay, conditions: at 50 nM; Table 5, library products of procedure 40, crude reaction stock; read-out: % inhibition (percent c-MET inhibition)

inhibition at 0.05 µM [%] | SMILES
63 | CC(Oc1cc(-c2ccc(C(=O)N3CCCCC3CCO)cc2)cnc1N)c1c(Cl)ccc(F)c1Cl [Example L-47]
69 | CC(Oc1cc(-c2ccc(C(=O)N(C)CCO)cc2)cnc1N)c1c(Cl)ccc(F)c1Cl [Example L-104]
64 | CC(C)OCCNC(=O)c1ccc(-c2cnc(N)c(OC(C)c3c(Cl)ccc(F)c3Cl)c2)cc1 [Example L-140]

same assay, conditions: at 1 μM; Table 8, library products of procedure 43, crude reaction stock; read-out: % inhibition (percent c-MET inhibition)

inhibition at 1 µM [%] | SMILES
17 | CC1CN(C(=O)c2ccc(-c3cnc(N)c(COc4cc(F)ccc4C(F)(F)F)c3)cc2)CC(C)N1 (stereo not shown)
27 | CC1CN(C(=O)c2ccc(-c3cnc(N)c(OCc4nc5cc(C(F)(F)F)ccc5s4)c3)cc2)CC(C)N1 (stereo not shown)

same assay, conditions: cells marked "Ki"; read-out: Ki (printed in the Met IC50 column)

Ki [µM] | SMILES
0.016 | CC(Oc1cc(-c2ccc(OCC(=O)N3CCN(C(=O)OC(C)(C)C)CC3)cc2)cnc1N)c1c(Cl)ccc(F)c1Cl (stereo not shown) [Example I-479, 4-[2-(4-{8-Amino-5-[1-(2,6-dichloro-3-fluoro-phenyl)-ethoxy]-pyridin-3-yl}-phenoxy)-acetyl]-piperazine-1-carboxylic acid tert-butyl ester]

same assay, conditions: read-out: % (inhibition) at 1 μM (printed in the Met IC50 column), at 1 μM

inhibition at 1 µM [%] | SMILES
16 | CC(Oc1cc(-c2ccc(C(=O)N3CCN(C)CC3)cc2)cnc1N)c1cccc(F)c1C(F)(F)F (stereo not shown) [Example I-442, (4-{6-Amino-5-[1-(3-fluoro-2-trifluoromethyl-phenyl)-ethoxy]-pyridin-3-yl}-phenyl)-(4-methyl-piperazin-1-yl)-methanone]
15 | CC(Oc1cc(-c2ccc(C(=O)N3CCC[C@H]3CN3CCCC3)cc2)cnc1N)c1cccc(F)c1C(F)(F)F (stereo partly drawn) [Example I-445, (4-{6-Amino-5-[1-(3-fluoro-2-trifluoromethyl-phenyl)-ethoxy]-pyuidin-3-yl}-phenyl)-((S)-2-pyrrolidin-1-ylmethyl-pyrrolidin-1-yl)-methanone]
12 | CC(Oc1cc(-c2ccc(C(=O)N3CCC[C@@H]3CN3CCCC3)cc2)cnc1N)c1cccc(F)c1C(F)(F)F (stereo partly drawn) [Example I-446, (4-{6 Amino-5-[1-(3-fluoro-2-trifluoromethyl-phenyl)-ethoxy]pyridin-3-yl}-phenyl)-((R) 2 pyrrolidin-1-ylmethyl-pyrrolidin-1-yl)-methanone]
8 | CC(Oc1cc(C#N)cnc1N)c1c(Cl)ccc(C#N)c1Cl (stereo not shown) [Example I-455, 6-Amino-5-[1-(2,6-dichloro-3-cyano-phenyl)-ethoxy]-nicotinonitrile]
0 | CC(Oc1cc(CN)cnc1N)c1c(Cl)ccc(F)c1Cl (stereo not shown) [Example I-456, 5-Aminomethyl-3-[1-(2,6-dichloro-3-fluoro-phenyl)-ethoxy]-pyridin-2-ylamine]
1 | CC(Oc1cc(CNC(=O)N2CCC[C@@H]2CN2CCCC2)cnc1N)c1c(Cl)ccc(F)c1Cl (stereo partly drawn) [Example I-457, (R)-2-Pyrrolidin-1-ylmethyl-pyrrolidine-1-carboxylic acid {6-amino-5-[1-(2,6-dichloro-3-fluoro-phenyl)-ethoxy]-pyridin-3-ylmethyl}-amide]
0 | CC(Oc1cc(CNS(C)(=O)=O)cnc1N)c1c(Cl)ccc(F)c1Cl (stereo not shown) [Example I-458, N-{6-Amino-5-[1-(2,6-dichloro-3-fluorophenyl)-ethoxy]-pyridin-3-ylmethyl}-methanesulfonamide]
9 | Cc1ccc(S(=O)(=O)NCc2cnc(N)c(OC(C)c3c(Cl)ccc(F)c3Cl)c2)cc1 (stereo not shown) [Example I-460, N-{6-Amino-5-[1-(2,6-dichloro-3-fluoro-phenyl)-ethoxy]-pyridin-3-ylmethyl}-4-methyl-benzenesulfonamide]
2 | CC(Oc1cc([C@H](O)CO)cnc1N)c1c(Cl)ccc(F)c1Cl (stereo partly drawn) [Example I-462, (S)-1-{6 Amino-5-[1-(2,6-dichloro-3-fluoro-phenyl)-ethoxy]-pyridin-3-yl}-ethane-1,2-diol]
2 | CC(Oc1cc([C@@H](O)CO)cnc1N)c1c(Cl)ccc(F)c1Cl (stereo partly drawn) [Example I-463, (R)-1-{6-Amino-5-[1-(2,6-dichloro-3-fluoro-phenyl)-ethoxy]-pyridin-3-yl}-ethane-1,2-diol]
8 | COc1c(F)cccc1COc1cc(Br)cnc1N [Example I-468, 5-Bromo-3-(3-fluoro-2-methoxy-benzyloxy)-pyridin-2-ylamine]
7 | COc1c(F)cccc1C(C)Oc1cc(Br)cnc1N (stereo not shown) [Example I-469, 5-Bromo-3-[1-(3-fluoro-2-methoxy-phenyl)-ethoxy]-pyridin-2-ylamine]
3 | COc1c(F)cccc1COc1cc(-c2ccc(C(=O)N3C[C@@H](C)N[C@@H](C)C3)cc2)cnc1N [Example I-470, (4-{6-Amino-5-(3-fluoro-2-methoxy-benzyloxy)-pyridin-3-yl]-phenyl}-((3R,5S)-3,5-dimethyl-piperazin-1-yl)-methanone]

More lines, now with the values behind:

SMILES | inhibition at 1 µM [%]
CC(Oc1cc(-c2ccc(C(=O)N3CCC(N4CCCC4)CC3)cc2)cnc1N)c1cccc(F)c1C(F)(F)F (stereo not shown) [Example I-443, (4-{6-Amino-5-[1-(3-fluoro-2-trifluoromethyl-phenyl)-ethoxy]-pyridin-3-yl}-phenyl)-(4-pyrrolidin-1-yl-piperidin-1yl)-methanone] | 13
CC(Oc1cc(-c2ccc(C(=O)N3C[C@@H](C)N[C@@H](C)C3)cc2)cnc1N)c1cccc(F)c1C(F)(F)F (stereo partly drawn) [Example I-444, (4-{6-Amino-5-[1-(3-fluoro-2-trinuommethyl-phenyl)-ethoxy]-pyridin-3-yl}-phenyl)-((3R,5S)-3,5-dimethyl-piperazin-1-yl)-methanone] | 10
CC(Oc1cc(-c2ccc(C(=O)NC3CCN(C)CC3)cc2)cnc1N)c1cccc(F)c1C(F)(F)F (stereo not shown) [Example I-449, 4-{6-Amino-5-[1-(3-fluoro-2-trifluoromethyl-phenyl)-ethoxy]pyridin-3-yl}-N-[1-methylpiperidin-4-yl)-benzamide] | 12
CC(Oc1cc(-c2ccc(C(=O)NCCN3CCCC3)cc2)cnc1N)c1cccc(F)c1C(F)(F)F (stereo not shown) [Example I-450, 4-{6-Amino-5-[1-(3-fluoro-2-trifluoromethyl-phenyl)-ethoxy]-pyridin-3-yl}-N-(2-pyrrolidin-1-yl-ethyl)-benzamide] | 7
CC(Oc1cc(-c2ccc(C(=O)NCCN3CCOCC3)cc2)cnc1N)c1cccc(F)c1C(F)(F)F (stereo not shown) [Example I-451, 4-{6-Amino-5-[1-(3-fluoro-2-trifluoromethyl-phenyl)-ethoxy]-pyridin-3-yl}-N-(2-morpholin-4-yl-ethyl)-benzamide] | 12
CC(Oc1cc(-c2ccc(C(=O)NCCCN3CCCC3)cc2)cnc1N)c1cccc(F)c1C(F)(F)F (stereo not shown) [Example I-452, 4-{6-Amino-5-[1-(3-fluoro-2-trifluoromethyl-phenyl)-ethoxy]-pyridin-3-yl}-N-(3-pyrrolidin-1-yl-propyl)-benzamide] | 3
CC(Oc1cc(-c2ccc(C(=O)NCCCN3CCOCC3)cc2)cnc1N)c1cccc(F)c1C(F)(F)F (stereo not shown) [Example I-453, 4-{6-Amino-5-[1-(3-fluoro-2-trifluoromethyl-phenyl)-ethoxy]-pyridin-3-yl}-N-(3-morpholin-4-yl-propyl)-benzamide] | 10
CC(=O)NCc1cnc(N)c(OC(C)c2c(Cl)ccc(F)c2Cl)c1 (stereo not shown) [Example I-459, N-{6-Amino-5-[1-(2,6-dichloro-3-fluoro-phenyl)-ethoxy]-pyridin-3-ylmethyl}-acetamide] | 2
COc1c(F)cccc1C(C)Oc1cc(-c2ccc(C(=O)N3C[C@@H](C)N[C@@H](C)C3)cc2)cnc1N (stereo partly shown) [Example I-471] | 1
CC(Oc1cc(Br)cnc1N)c1cccc(F)c1Cl (stereo not shown) [Example I-486, Bromo-3-[1-(2-chloro-3-fluoro-phenyl)-ethoxy]-pyridin-2-ylamine] | 0

biological target: T2, GST fusion protein containing the Met kinase domain (Homo sapiens, UniProt P08581); experiment: MET transphosphorylation assay (ELISA, poly(glu-tyr) substrate); type: biochemical; settings: not given
T2 construct: Purified GST fusion protein containing the Met kinase domain, SUGEN, Inc
T2 sequence (P08581 1078-1345 limits assumed): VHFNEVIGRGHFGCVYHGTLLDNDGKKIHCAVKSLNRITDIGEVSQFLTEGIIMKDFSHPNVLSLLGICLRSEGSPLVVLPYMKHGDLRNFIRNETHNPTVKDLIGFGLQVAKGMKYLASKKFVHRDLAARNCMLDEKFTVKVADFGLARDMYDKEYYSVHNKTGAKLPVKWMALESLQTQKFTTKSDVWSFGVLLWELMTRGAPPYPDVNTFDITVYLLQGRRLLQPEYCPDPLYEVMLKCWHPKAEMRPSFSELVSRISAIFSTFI

IC50 [nM] | SMILES
8100 | CN(C)[C@H]1CCN(C(=O)c2ccc(-c3cnc(N)c(OCc4ccc(F)cc4Cl)c3)cc2)C1 [Example I-205]
1500 | CN(C)CCS(=O)(=O)Nc1cccc(-c2cnc(N)c(OCc3c(F)ccc(F)c3Cl)c2)c1 [Example I-259, 2-Dimethylamino-ethanesulfonic acid {3-[6-amino-5-(2-chloro-3,6-difluoro-benzyloxy)-pyridin-3-yl]-phenyl}-amide]
18 | CC(Oc1cc(-c2ccc(C(=O)N3CCC(N)CC3)cc2)cnc1N)c1c(Cl)ccc(F)c1Cl (stereo not shown) [Example I-305, (4-{6-Amino-5-[1-(2,6-dichloro-3-fluoro-phenyl)-ethoxy]-pyridin-3-yl}-phenyl)-(4-amino-pipendin-1-yl)-methanone]
62 | CC(Oc1cc(-c2ccc(C(=O)N3CCC(N4CCCC4)CC3)cc2)cnc1N)c1c(F)ccc(F)c1Cl (stereo not shown) [Example I-339, (4-{6-Amino-5-[1-(2-chloro-3,6-difluoro-phenyl)-ethoxy]-pyridin-3-yl}-phenyl)-(4-pyrrolidin-1-yl-piperidin-1-yl)-methanone]

Source: patent US20070072874A1, “Aminoheteroaryl compounds as protein kinase inhibitors” (Sugen, Inc., priority 2003, published 2007)
